According to patent US11702414B2, “Thiadiazole IRAK4 inhibitors” (Gilead Sciences, Inc., priority 2018, dated 2023):
Read-outs that look alike come from different tables or passages of the source.

Assays:
[1] = system: TNFα; assay: IRAK4 Monocyte TNFα Cell Based Assay; design: species or system human; settings: Homo sapiens, Monocyte, read-out: EC50MONO TNF HTRF
Experimental: IRAK4 Monocyte TNFα Cell Based Assay Procedure:
The cell suspension was then plated at a density of 5,000 cells/well onto black 384 well Greiner clear bottom plates. Plates were pre-spotted with test compounds and serially diluted in DMSO where 40 nL/well were delivered using the Echo 550 acoustic liquid dispenser (Labcyte®) for a final DMSO concentration of 0.1%. Plated cells were treated with compound for 1 hour at 37° C. Cells were then stimulated with 50 pg/ml of LPS (Sigma) excluding outside columns of plate used for unstimulated cell control wells. Cells were incubated for an additional 4 hours at 37° C. Cells were then spun out of the media and 5μl of sample were taken and analyzed for total TNFα content using the TR-FRET Human TNFα detection system (CisBio). This system utilizes two labeled antibodies (cryptate and XL665) that bind to two different epitopes of the TNFα molecule and produce FRET signal proportional to the concentration of TNFα in the sample. Detection antibodies are mixed 50:50 and 5 μL were dispensed into each well. Plates were covered with clear seals and incubated at room temp overnight. […] Percent of control was calculated as follows: % Control=100×(RatioSample−Ratio0% Stimulation)/(Ratio100% Stimulation−Ratio0% Stimulation) where unstimulated cells (0% stimulation) were the negative control and stimulated cells (100% stimulation) were used as the positive control.

[2] = biological target: IRAK4 enzyme (Homo sapiens (Human), UniProt Q9NWZ3); assay: IRAK4 Biochemical Assay (TR-FRET, STK1 KinEASE)
Sequence of IRAK4 enzyme (Q9NWZ3 whole entry): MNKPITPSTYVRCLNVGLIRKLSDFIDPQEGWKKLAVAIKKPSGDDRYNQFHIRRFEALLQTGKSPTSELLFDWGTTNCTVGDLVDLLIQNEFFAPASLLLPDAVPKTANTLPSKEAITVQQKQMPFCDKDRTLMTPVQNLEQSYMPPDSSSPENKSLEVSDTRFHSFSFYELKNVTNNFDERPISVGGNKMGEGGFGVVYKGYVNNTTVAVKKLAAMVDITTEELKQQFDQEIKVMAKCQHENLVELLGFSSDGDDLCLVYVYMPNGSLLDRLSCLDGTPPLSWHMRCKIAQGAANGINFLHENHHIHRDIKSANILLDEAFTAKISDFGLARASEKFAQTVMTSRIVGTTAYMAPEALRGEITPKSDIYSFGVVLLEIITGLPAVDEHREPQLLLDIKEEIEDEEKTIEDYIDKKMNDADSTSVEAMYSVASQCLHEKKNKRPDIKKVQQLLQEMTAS
Experimental: IRAK4 enzyme (Carna Biosciences, Chuo-ku, Kobe, Japan) activity was measured by detecting phosphorylated peptide substrate formation using an antibody against the phosphorylated peptide substrate. This is a time-resolved fluorescence resonance energy transfer (TR-FRET) immunoassay, based on the STK1 KinEASE Assay (Cisbio, Bedford, Mass.). The assay was designed as a simple two-step, endpoint assay (a 5 μl enzyme reaction followed by 5 μl stop and detect Solution) performed in ProxiPlate-384 Plus plates (Perkin Elmer, Waltham, Mass.). […] Compounds diluted in DMSO were spotted into 384 well plates using a Labcyte® Echo 550 Liquid Handling System prior to addition of IRAK4 enzyme and peptide substrate. Reaction solutions were delivered using a Multi-Flo (Bio-Tek Instruments). The enzyme and peptide solution was incubated with compound for 15 minutes at room temp before the reaction was initiated by the addition of ATP. The standard 5 μl reaction mixture contained 500 μM ATP, 2 μM peptide (STK1 Peptide), 0.75 nM of IRAK4 in reaction buffer (50 mM HEPES, pH 7.0, 0.02% NaN3, 0.01% BSA, 0.1 mM Orthovanadate, 5 mM MgCl2, 0.025% NP-40, 1 mM DTT). After 120 min of incubation at room temperature, 5 μl of Stop and Detect Solution (1:100 Cryptate labeled anti-phosphorylated peptide antibody solution and 125 nM Tracer in a 50 mM HEPES pH 7.0 detection buffer containing sufficient EDTA) was added. The plate was then further incubated for 60 minutes at room temperature and read on Envision 2103 Multilabeled reader (PerkinElmer) with excitation/emission/FRET emission at 340 nm/615 nm/665 nm, respectively. Fluorescence intensities at 615 nm and 665 nm emission wavelengths were expressed as a ratio (665 nm/615 nm). Percentage of inhibition was calculated as below: % Inhibition=100×(RatioSample−Ratio0% Inhibition)/(Ratio100% Inhibition−Ratio0% Inhibition)
The 0% inhibition value comes from control wells lacking inhibitor.

[3] = human monocytes, second part of Table 2 (compounds 33-343), unit inferred

What does the source list for `CC(=O)N1CCN(c2nnc(-c3cnc(-c4ccc5cc(C#N)cnn45)cc3NC(C)C)s2)CC1` [Compound 232, 7-(5-(5-(4-acetylpiperazin-1-yl)-1,3,4-thiadiazol-2-yl)-4-(isopropylamino)pyridin-2-yl)pyrrolo[1,2-b]pyridazine-3-carbonitrile]?
EC50 [1, 3]: 7.4 nM; IC50 [2]: 0.62 nM

What does the source list for `CC(=O)N1C2CC1CN(c1nnc(-c3cnc(-c4ccc5cc(C#N)cnn45)cc3NC(C)C)s1)C2` [Compound 258, 7-(5-(5-(6-acetyl-3,6-diazabicyclo[3.1.1]heptan-3-yl)-1,3,4-thiadiazol-2-yl)-4-(isopropylamino)pyridin-2-yl)pyrrolo[1,2-b]pyridazine-3-carbonitrile]?
EC50 [1]: 5.8 nM; IC50 [2]: 1.26 nM

Which results are given for `CC(=O)N1CC2CCC(C1)N2c1nnc(-c2cnc(-c3ccc4cc(C#N)cnn34)cc2NC(C)C)s1` [Compound 260, 7-(5-(5-(3-acetyl-3,8-diazabicyclo[3.2.1]octan-8-yl)-1,3,4-thiadiazol-2-yl)-4-(isopropylamino)pyridin-2-yl)pyrrolo[1,2-b]pyridazine-3-carbonitrile]?
EC50 [1]: 15.8 nM; IC50 [2]: 2.56 nM

How did the EC50 [1] turn out when `CC(=O)N1CC2CC(C1)N2c1nnc(-c2cnc(-c3ccc4cc(C#N)cnn34)cc2NC(C)C)s1` [Compound 261, 7-(5-(5-(3-acetyl-3,6-diazabicyclo[3.1.1]heptan-6-yl)-1,3,4-thiadiazol-2-yl)-4-(isopropylamino)pyridin-2-yl)pyrrolo[1,2-b]pyridazine-3-carbonitrile] was run?
Its EC50 is 18.3 nM.

And the IC50 [2]?
Its IC50 is 0.73 nM.

How did the EC50 [1] turn out when `CC(=O)N1C2CCC1CN(c1nnc(-c3cnc(-c4ccc5cc(C#N)cnn45)cc3NC3(C)COC3)s1)C2` [Compound 264, 7-(5-(5-(8-acetyl-3,8-diazabicyclo[3.2.1]octan-3-yl)-1,3,4-thiadiazol-2-yl)-4-((3-methyloxetan-3-yl)amino)pyridin-2-yl)pyrrolo[1,2-b]pyridazine-3-carbonitrile] was run?
The EC50 was 2.7 nM.

What about the IC50 [2] of the same molecule?
The IC50 was 0.59 nM.

What does the source list for `CC(=O)N1C[C@H]2COC[C@@H](C1)N2c1nnc(-c2cnc(-c3ccc4cc(C#N)cnn34)cc2NC(C)C)s1` [Compound 266, 7-(5-(5-((1R,5S)-7-acetyl-3-oxa-7,9-diazabicyclo[3.3.1]nonan-9-yl)-1,3,4-thiadiazol-2-yl)-4-(isopropylamino)pyridin-2-yl)pyrrolo[1,2-b]pyridazine-3-carbonitrile]?
EC50 [1]: 3.2 nM; IC50 ([2]; second part of Table 2 (compounds 33-343), unit inferred, read-out: IC50 IRAK4-HTBS): 0.49 nM

For `CC(=O)N1[C@@H]2COC[C@H]1CN(c1nnc(-c3cnc(-c4ccc5cc(C#N)cnn45)cc3NC3CCOCC3)s1)C2` [Compound 269, 7-(5-(5-((1R,5S)-9-acetyl-3-oxa-7,9-diazabicyclo[3.3.1]nonan-7-yl)-1,3,4-thiadiazol-2-yl)-4-((tetrahydro-2H-pyran-4-yl)amino)pyridin-2-yl)pyrrolo[1,2-b]pyridazine-3-carbonitrile], which EC50 [1] is on record?
The EC50 was 5.8 nM.

What about the IC50 [2] of the same molecule?
Its IC50 is 0.8 nM.

With `CC(C)Nc1cc(-c2ccc3cc(C#N)cnn23)ncc1-c1nnc(CC#N)s1` [Compound 321, 7-(5-(5-(cyanomethyl)-1,3,4-thiadiazol-2-yl)-4-(isopropylamino)pyridin-2-yl)pyrrolo[1,2-b]pyridazine-3-carbonitrile] as the molecule, how does the EC50 [1, 3] read?
Its EC50 is 53.5 nM.

What about the IC50 [2] of the same molecule?
Its IC50 is 1.46 nM.

`CC(C)Nc1cc(-c2ccc3cc(C#N)cnn23)ncc1-c1nnc(C2CCOC2)s1` (centres unmarked) [Compound 322, 7-(4-(isopropylamino)-5-(5-(tetrahydrofuran-3-yl)-1,3,4-thiadiazol-2-yl)pyridin-2-yl)pyrrolo[1,2-b]pyridazine-3-carbonitrile] was tested. Which EC50 [1, 3] did it give?
The EC50 was 419 nM.

And the IC50 [2]?
Its IC50 is 0.31 nM.

How did the EC50 [1, 3] turn out when `CC(=O)N[C@H]1CN(c2nnc(-c3cnc(-c4ccc5cc(C#N)cnn45)cc3NC(C)C)s2)CC12CC2` [Compound 323, (R)-N-(5-(5-(6-(3-cyanopyrrolo[1,2-b]pyridazin-7-yl)-4-(isopropylamino)pyridin-3-yl)-1,3,4-thiadiazol-2-yl)-5-azaspiro[2.4]heptan-7-yl)acetamide] was run?
The EC50 was 3.7 nM.

And the IC50 [2]?
The IC50 was 0.62 nM.

What does the source list for `CC(=O)N[C@@H]1CN(c2nnc(-c3cnc(-c4ccc5cc(C#N)cnn45)cc3NC(C)C)s2)CC12CC2` [Compound 324, (S)-N-(5-(5-(6-(3-cyanopyrrolo[1,2-b]pyridazin-7-yl)-4-(isopropylamino)pyridin-3-yl)-1,3,4-thiadiazol-2-yl)-5-azaspiro[2.4]heptan-7-yl)acetamide]?
EC50 [1, 3]: 19.1 nM; IC50 [2]: 0.99 nM

What does the source list for `CC(C)Nc1cc(-c2ccc3cc(C#N)cnn23)ncc1-c1nnc(-n2cccn2)s1` [Compound 325, 7-(5-(5-(1H-pyrazol-1-yl)-1,3,4-thiadiazol-2-yl)-4-(isopropylamino)pyridin-2-yl)pyrrolo[1,2-b]pyridazine-3-carbonitrile]?
EC50 [1, 3]: 1000 nM; IC50 [2]: 8.07 nM

With `CC(C)Nc1cc(-c2ccc3cc(C#N)cnn23)ncc1-c1nnc(-n2cnc(C3CC3)c2)s1` [Compound 326, 7-(5-(5-(4-cyclopropyl-1H-imidazol-1-yl)-1,3,4-thiadiazol-2-yl)-4-(isopropylamino)pyridin-2-yl)pyrrolo[1,2-b]pyridazine-3-carbonitrile] as the molecule, how does the IC50 [2] read?
Its IC50 is 6.01 nM.

For `CC(=O)NC1CN(c2nnc(-c3cnc(-c4ccc5cc(C#N)cnn45)cc3NC(C)C)s2)CC1(F)F` (centres unmarked) [Compound 327, N-(1-(5-(6-(3-cyanopyrrolo[1,2-b]pyridazin-7-yl)-4-(isopropylamino)pyridin-3-yl)-1,3,4-thiadiazol-2-yl)-4,4-difluoropyrrolidin-3-yl)acetamide], which EC50 [1, 3] is on record?
The EC50 was 10.2 nM.

And the IC50 [2]?
Its IC50 is 0.37 nM.

With `CC(C)Nc1cc(-c2ccc3cc(C#N)cnn23)ncc1-c1nnc(N2CC(N3CCC(F)(F)C3)C2)s1` [Compound 328, 7-(5-(5-(3-(3,3-difluoropyrrolidin-1-yl)azetidin-1-yl)-1,3,4-thiadiazol-2-yl)-4-(isopropylamino)pyridin-2-yl)pyrrolo[1,2-b]pyridazine-3-carbonitrile] as the molecule, how does the EC50 [1, 3] read?
Its EC50 is 80.5 nM.

What about the IC50 [2] of the same molecule?
Its IC50 is 1.02 nM.

Which results are given for `CC(C)Nc1cc(-c2ccc3cc(C#N)cnn23)ncc1-c1nnc(N2CCC[C@H]2CO)s1` [Compound 329, (S)-7-(5-(5-(2-(hydroxymethyl)pyrrolidin-1-yl)-1,3,4-thiadiazol-2-yl)-4-(isopropylamino)pyridin-2-yl)pyrrolo[1,2-b]pyridazine-3-carbonitrile]?
EC50 [1, 3]: 54.2 nM; IC50 [2]: 0.84 nM

How did the EC50 [1, 3] turn out when `CC(=O)N[C@@H]1CCN(c2nnc(-c3cnc(-c4ccc5cc(C#N)cnn45)cc3NC(C)C)s2)C1` [Compound 330, (R)-N-(1-(5-(6-(3-cyanopyrrolo[1,2-b]pyridazin-7-yl)-4-(isopropylamino)pyridin-3-yl)-1,3,4-thiadiazol-2-yl)pyrrolidin-3-yl)acetamide] was run?
The EC50 was 47.1 nM.

What about the IC50 [2] of the same molecule?
The IC50 was 1.8 nM.

Which results are given for `CC(=O)N[C@H]1CCN(c2nnc(-c3cnc(-c4ccc5cc(C#N)cnn45)cc3NC(C)C)s2)C1` [Compound 331, (S)-N-(1-(5-(6-(3-cyanopyrrolo[1,2-b]pyridazin-7-yl)-4-(isopropylamino)pyridin-3-yl)-1,3,4-thiadiazol-2-yl)pyrrolidin-3-yl)acetamide]?
EC50 [1, 3]: 81.4 nM; IC50 [2]: 1.21 nM

With `CC(C)Nc1cc(-c2ccc3cc(C#N)cnn23)ncc1-c1nnc(C2CCC(C#N)CC2)s1` (centres unmarked) [Compound 333, 7-(5-(5-(4-cyanocyclohexyl)-1,3,4-thiadiazol-2-yl)-4-(isopropylamino)pyridin-2-yl)pyrrolo[1,2-b]pyridazine-3-carbonitrile] as the molecule, how does the EC50 [1, 3] read?
The EC50 was 1000 nM.

What about the IC50 [2] of the same molecule?
The IC50 was 1.99 nM.

With `CC(=O)N[C@H]1CCN(c2nnc(-c3cnc(-c4ccc5cc(C#N)cnn45)cc3NC(C)C)s2)C[C@@H]1O` [Example 64, N-((3S,4S)-1-(5-(6-(3-cyanopyrrolo[1,2-b]pyridazin-7-yl)-4-(isopropylamino)pyridin-3-yl)-1,3,4-thiadiazol-2-yl)-3-hydroxypiperidin-4-yl)acetamide] as the molecule, how does the IC50 [2] read?
The IC50 was 0.28 nM.
